Test results taken from EP4706655A1, “PREVENTIVE OR THERAPEUTIC AGENT FOR NEURODEGENERATIVE DISEASE” (Medilabo RFP, Inc., priority 2023, dated 2024).

Legend:
BDNF = test: Expression of BDNF in the mouse brains; type: in vivo; details: stated in the discussion only; no method, dose or data given
FTD/ALS model mice [1] = test: Immunohistochemical analysis of brain sections (Test Example 2); type: in vivo; details: nasal, single agent 0.04 mg/day, 1 month
Text: (§1) FVB/NJ-Tg(C9orf72)500Lpwr/J mice (FTD/ALS model mice) were purchased from The Jackson Laboratory (Bar Harbor, ME, USA). The mouse strain was generated as a model for the C9orf72-associated FTD/ALS expressing the human C9orf72 gene with about 500 hexanucleotide (GGGGCC) repeats using a bacterial artificial chromosome (BAC) vector. Transgenic (Tg) mice were crossed with wild-type FVB/NJc1 mice, and the transgene was maintained as a heterozygote at our animal facility.
(§2) Age-matched non-Tg rat mates received only CMC.
(§3) After the behavioral test, each group was divided into two groups: one for immunohistochemical analysis and the other for future biochemical analysis. Immunohistochemical staining was performed as described above. For staining of double-stranded RNA-dependent protein kinase (PKR), phosphorylated TDP-43, synaptophysin, sections were boiled in 10 mM citrate buffer solution (pH6) for 30 min to expose the antigens. The sections were blocked overnight with 10% calf serum, and then the resultant sections were stained with antibodies for DNA/RNA G-quadruplex (BG4; Absolute antibody, Cleveland, UK), phospho-PKR (Thr446) (MilliporeSigma, Burlington, MA, USA), poly-GA, poly-GP (Cosmo Bio Co., Ltd., Tokyo, Japan), pSer409/410-TDP-43 (Cosmo Bio Co., Ltd.), and synaptophysin (SVP-38; Sigma-Aldrich, St. Luis, MO, USA). Only synaptophysin was stained with a biotin-labeled secondary antibody (Vector Laboratories, Burlingame, CA, USA), a horseradish peroxidase (HRP) -labeled avidin-biotin complex (Vector Laboratories), HRP substrate, diaminobenzidine (DAB), or an FITC-labeled secondary antibody (The Jackson Laboratory). […] Neuropathologies were evaluated by measuring the staining intensity or area or by counting positive puncta or cells in a constant area in each photograph using NIH ImageJ software.

FTD/ALS model mice [2] = test: Morris water maze test (Test Example 2); type: in vivo; details: 7- to 8-month-old mice; nasal, single agent 0.04 mg/day, 1 month
Text: as §1, with “([…])” for “(GGGGCC)”, “facility. […] Louis, MO) and trans-resveratrol (Sigma-Aldrich) were dissolved in 0.5% low-viscosity CMC (Sigma-Aldrich) at 4 mg/mL. […] Age-matched non-Tg […] mates received only CMC. After administration for one month, the cognitive function of the mice was assessed in the Morris water maze test as described above.” for “facility.”

PKR = test: Immunohistochemical analysis of phospho-PKR (Thr446) (Test Example 2); type: in vivo, mice; details: prefrontal cortex; nasal, single agent 0.04 mg/day, 1 month
Procedure: as §2, §3

SMILES: Oc1ccc(/C=C/c2cc(O)cc(O)c2)cc1 [resveratrol, 3,5,4'-trihydroxy-trans-stilbene]
- expression of BDNF in the mouse brains (BDNF): elicited
- relative strength of the reduction of prefrontal cortex pathologies (G-quadruplex, phosphorylated PKR, poly-GA, poly-GP, phosphorylated TDP-43) (FTD/ALS model mice [1]; comparison among treatment groups): strongest effect
- synaptic loss (synaptophysin levels) in the DG (FTD/ALS model mice [1]; dentate gyrus): significantly restored synaptic loss
- synaptic loss (synaptophysin levels) in the CA2-3 region (FTD/ALS model mice [1]; hippocampus): significantly restored synaptic loss
- levels of G-quadruplex (FTD/ALS model mice [1]; prefrontal cortex): significantly reduced
- levels of phosphorylated TDP-43 (FTD/ALS model mice [1]; prefrontal cortex): significantly reduced
- levels of poly-GA (FTD/ALS model mice [1]; prefrontal cortex): significantly reduced
- levels of poly-GP (FTD/ALS model mice [1]; prefrontal cortex): significantly reduced
- cognitive function of FTD/ALS model mice (FTD/ALS model mice [2]): significantly improved
- levels of phosphorylated PKR (PKR): significantly reduced
